Experimental data taken from ChEMBL document CHEMBL5154747, “Discovery of new carbonic anhydrase IX inhibitors as anticancer agents by toning the hydrophobic and hydrophilic rims of the active site to encounter the dual-tail approach” (Eur J Med Chem, 2022).

Experiments:
PC-3 = test: Anticancer activity against human PC-3 cells assessed as cell growth inhibition at 10 uM incubated for 48 hrs by SRB assay relative to control; format: functional; settings: read-out: GI
A549 = test: Anticancer activity against human A549 cells assessed as cell growth inhibition at 10 uM incubated for 48 hrs by SRB assay relative to control; format: functional; settings: read-out: GI
SK-OV-3 = test: Anticancer activity against human SK-OV-3 cells assessed as cell growth inhibition at 10 uM incubated for 48 hrs by SRB assay relative to control; format: functional; settings: read-out: GI
SK-MEL-5 = test: Anticancer activity against human SK-MEL-5 cells assessed as cell growth inhibition at 10 uM incubated for 48 hrs by SRB assay relative to control; format: functional; settings: read-out: GI
UACC-257 = test: Anticancer activity against human UACC-257 cells assessed as cell growth inhibition at 10 uM incubated for 48 hrs by SRB assay relative to control; format: functional; settings: read-out: GI
IGROV-1 = test: Anticancer activity against human IGROV-1 cells assessed as cell growth inhibition at 10 uM incubated for 48 hrs by SRB assay relative to control; format: functional; settings: read-out: GI
KM12 = test: Anticancer activity against human KM12 cells assessed as cell growth inhibition at 10 uM incubated for 48 hrs by SRB assay relative to control; format: functional; settings: read-out: GI
CAKI-1 = test: Anticancer activity against human CAKI-1 cells assessed as cell growth inhibition at 10 uM incubated for 48 hrs by SRB assay relative to control; format: functional; settings: read-out: GI
HCC 2998 = test: Anticancer activity against human HCC 2998 cells assessed as cell growth inhibition at 10 uM incubated for 48 hrs by SRB assay relative to control; format: functional; settings: read-out: GI
OVCAR-3 = test: Anticancer activity against human OVCAR-3 cells assessed as cell growth inhibition at 10 uM incubated for 48 hrs by SRB assay relative to control; format: functional; settings: read-out: GI
SF-539 = test: Anticancer activity against human SF-539 cells assessed as cell growth inhibition at 10 uM incubated for 48 hrs by SRB assay relative to control; format: functional; settings: read-out: GI
NCI-H460 = test: Anticancer activity against human NCI-H460 cells assessed as cell growth inhibition at 10 uM incubated for 48 hrs by SRB assay relative to control; format: functional; settings: read-out: GI
SK-MEL-2 = test: Anticancer activity against human SK-MEL-2 cells assessed as cell growth inhibition at 10 uM incubated for 48 hrs by SRB assay relative to control; format: functional; settings: read-out: GI
SNB-75 = test: Anticancer activity against human SNB-75 cells assessed as cell growth inhibition at 10 uM incubated for 48 hrs by SRB assay relative to control; format: functional; settings: read-out: GI
T47D = test: Anticancer activity against human T47D cells assessed as cell growth inhibition at 10 uM incubated for 48 hrs by SRB assay relative to control; format: functional; settings: read-out: GI
HCT-116 = test: Anticancer activity against human HCT-116 cells assessed as cell growth inhibition at 10 uM incubated for 48 hrs by SRB assay relative to control; format: functional; settings: read-out: GI
MDA-MB-231 = test: Anticancer activity against human MDA-MB-231 cells assessed as cell growth inhibition at 10 uM incubated for 48 hrs by SRB assay relative to control; format: functional; settings: read-out: GI
NCI/ADR-RES = test: Anticancer activity against human NCI/ADR-RES cells assessed as cell growth inhibition at 10 uM incubated for 48 hrs by SRB assay relative to control; format: functional; settings: read-out: GI
A498 = test: Anticancer activity against human A498 cells assessed as cell growth inhibition at 10 uM incubated for 48 hrs by SRB assay relative to control; format: functional; settings: read-out: GI
MCF7 = test: Anticancer activity against human MCF7 cells assessed as cell growth inhibition at 10 uM incubated for 48 hrs by SRB assay relative to control; format: functional; settings: read-out: GI
RPMI-8226 = test: Anticancer activity against human RPMI-8226 cells assessed as cell growth inhibition at 10 uM incubated for 48 hrs by SRB assay relative to control; format: functional; settings: read-out: GI
NCI-H226 = test: Anticancer activity against human NCI-H226 cells assessed as cell growth inhibition at 10 uM incubated for 48 hrs by SRB assay relative to control; format: functional; settings: read-out: GI
NCI-H522 = test: Anticancer activity against human NCI-H522 cells assessed as cell growth inhibition at 10 uM incubated for 48 hrs by SRB assay relative to control; format: functional; settings: read-out: GI
Carbonic anhydrase 9 = Carbonic anhydrase 9 (Homo sapiens, UniProt Q16790); test: Inhibition of recombinant human CA 9 preincubated for 15 mins by phenol red dye based stopped flow CO2 hydration assay
Hs-578T = test: Anticancer activity against human Hs-578T cells assessed as cell growth inhibition at 10 uM incubated for 48 hrs by SRB assay relative to control; format: functional; settings: read-out: GI
HT-29 = test: Anticancer activity against human HT-29 cells assessed as cell growth inhibition at 10 uM incubated for 48 hrs by SRB assay relative to control; format: functional; settings: read-out: GI
SF-268 = test: Anticancer activity against human SF-268 cells assessed as cell growth inhibition at 10 uM incubated for 48 hrs by SRB assay relative to control; format: functional; settings: read-out: GI
HOP-92 = test: Anticancer activity against human HOP-92 cells assessed as cell growth inhibition at 10 uM incubated for 48 hrs by SRB assay relative to control; format: functional; settings: read-out: GI
HCT-15 = test: Anticancer activity against human HCT-15 cells assessed as cell growth inhibition at 10 uM incubated for 48 hrs by SRB assay relative to control; format: functional; settings: read-out: GI
Malme-3M = test: Anticancer activity against human Malme-3M cells assessed as cell growth inhibition at 10 uM incubated for 48 hrs by SRB assay relative to control; format: functional; settings: read-out: GI
LOX IMVI = test: Anticancer activity against human LOX IMVI cells assessed as cell growth inhibition at 10 uM incubated for 48 hrs by SRB assay relative to control; format: functional; settings: read-out: GI
SW-620 = test: Anticancer activity against human SW-620 cells assessed as cell growth inhibition at 10 uM incubated for 48 hrs by SRB assay relative to control; format: functional; settings: read-out: GI
ACHN = test: Anticancer activity against human ACHN cells assessed as cell growth inhibition at 10 uM incubated for 48 hrs by SRB assay relative to control; format: functional; settings: read-out: GI
MDA-MB-468 = test: Anticancer activity against human MDA-MB-468 cells assessed as cell growth inhibition at 10 uM incubated for 48 hrs by SRB assay relative to control; format: functional; settings: read-out: GI
MDA-MB-435 = test: Anticancer activity against human MDA-MB-435 cells assessed as cell growth inhibition at 10 uM incubated for 48 hrs by SRB assay relative to control; format: functional; settings: read-out: GI
CCRF-CEM = test: Anticancer activity against human CCRF-CEM cells assessed as cell growth inhibition at 10 uM incubated for 48 hrs by SRB assay relative to control; format: functional; settings: read-out: GI
SN12C = test: Anticancer activity against human SN12C cells assessed as cell growth inhibition at 10 uM incubated for 48 hrs by SRB assay relative to control; format: functional; settings: read-out: GI
NCI-H23 = test: Anticancer activity against human NCI-H23 cells assessed as cell growth inhibition at 10 uM incubated for 48 hrs by SRB assay relative to control; format: functional; settings: read-out: GI
UO-31 = test: Anticancer activity against human UO-31 cells assessed as cell growth inhibition at 10 uM incubated for 48 hrs by SRB assay relative to control; format: functional; settings: read-out: GI
SR = test: Anticancer activity against human SR cells assessed as cell growth inhibition at 10 uM incubated for 48 hrs by SRB assay relative to control; format: functional; settings: read-out: GI

| SMILES | inhibition of growth at 10 µM (PC-3) [%] | inhibition of growth at 10 µM (A549) [%] | inhibition of growth at 10 µM (SK-OV-3) [%] | inhibition of growth at 10 µM (SK-MEL-5) [%] | inhibition of growth at 10 µM (UACC-257) [%] | inhibition of growth at 10 µM (IGROV-1) [%] | inhibition of growth at 10 µM (KM12) [%] | inhibition of growth at 10 µM (CAKI-1) [%] | inhibition of growth at 10 µM (HCC 2998) [%] | inhibition of growth at 10 µM (OVCAR-3) [%] | inhibition of growth at 10 µM (SF-539) [%] | inhibition of growth at 10 µM (NCI-H460) [%] | inhibition of growth at 10 µM (SK-MEL-2) [%] | inhibition of growth at 10 µM (SNB-75) [%] | inhibition of growth at 10 µM (T47D) [%] | inhibition of growth at 10 µM (HCT-116) [%] | inhibition of growth at 10 µM (MDA-MB-231) [%] | inhibition of growth at 10 µM (NCI/ADR-RES) [%] | inhibition of growth at 10 µM (A498) [%] | inhibition of growth at 10 µM (MCF7) [%] | other results |
| --- | --- | --- | --- | --- | --- | --- | --- | --- | --- | --- | --- | --- | --- | --- | --- | --- | --- | --- | --- | --- | --- |
| CCCCc1nc(/C=N/Nc2nc(Nc3ccccc3)nc(Nc3ccc(S(N)(=O)=O)cc3)n2)c(Cl)[nH]1 | 17 | < 10 | < 10 | 24 | < 10 | < 10 | < 10 | < 10 | 29 | 53 | 18 | < 10 | 34 | < 10 | 85 | < 10 | 33 | < 10 | 10 | 53 | inhibition of growth at 10 µM (RPMI-8226): < 10%; inhibition of growth at 10 µM (NCI-H226): < 10%; inhibition of growth at 10 µM (NCI-H522): 58%; Ki (Carbonic anhydrase 9): 259 nM; inhibition of growth at 10 µM (Hs-578T): 22%; inhibition of growth at 10 µM (HT-29): < 10%; inhibition of growth at 10 µM (SF-268): 34%; inhibition of growth at 10 µM (HOP-92): 39%; inhibition of growth at 10 µM (HCT-15): < 10%; inhibition of growth at 10 µM (Malme-3M): < 10%; inhibition of growth at 10 µM (LOX IMVI): 58%; inhibition of growth at 10 µM (SW-620): 24%; inhibition of growth at 10 µM (ACHN): < 10%; inhibition of growth at 10 µM (MDA-MB-468): 112%; inhibition of growth at 10 µM (MDA-MB-435): < 10%; inhibition of growth at 10 µM (CCRF-CEM): 87%; inhibition of growth at 10 µM (SN12C): < 10%; inhibition of growth at 10 µM (NCI-H23): < 10%; inhibition of growth at 10 µM (UO-31): 14%; inhibition of growth at 10 µM (SR): 88% |
| NS(=O)(=O)c1ccc(Nc2nc(N/N=C/c3ccccc3)nc(Nc3ccccc3)n2)cc1 | 31 | 28 | < 10 | 35 | < 10 | 38 | 26 | 27 | 21 | 29 | 23 | 31 | 10 | < 10 | 37 | 27 | 16 | < 10 | 42 | 46 | inhibition of growth at 10 µM (RPMI-8226): 41%; inhibition of growth at 10 µM (NCI-H226): 22%; inhibition of growth at 10 µM (NCI-H522): < 10%; Ki (Carbonic anhydrase 9): 30.3 nM; inhibition of growth at 10 µM (Hs-578T): 43%; inhibition of growth at 10 µM (HT-29): 37%; inhibition of growth at 10 µM (SF-268): 19%; inhibition of growth at 10 µM (HOP-92): 27%; inhibition of growth at 10 µM (HCT-15): 13%; inhibition of growth at 10 µM (Malme-3M): 22%; inhibition of growth at 10 µM (LOX IMVI): 35%; inhibition of growth at 10 µM (SW-620): < 10%; inhibition of growth at 10 µM (ACHN): 17%; inhibition of growth at 10 µM (MDA-MB-468): 19%; inhibition of growth at 10 µM (MDA-MB-435): 26%; inhibition of growth at 10 µM (CCRF-CEM): 52%; inhibition of growth at 10 µM (SN12C): 20%; inhibition of growth at 10 µM (NCI-H23): 13%; inhibition of growth at 10 µM (UO-31): 34%; inhibition of growth at 10 µM (SR): 25% |
